How the values were obtained:
[1] = Inhibition of Inositol 1,4,5-trisphosphate 3-kinase from rat brain homogenate (r metabolically resistant)
[2] = target: T1, Inositol polyphosphate-5-phosphatase A (Homo sapiens, UniProt Q14642); test: Tested for inhibition of 5-phosphatase isolated from human erythrocyte membrane (S substrate)
T1 sequence (Q14642 whole entry): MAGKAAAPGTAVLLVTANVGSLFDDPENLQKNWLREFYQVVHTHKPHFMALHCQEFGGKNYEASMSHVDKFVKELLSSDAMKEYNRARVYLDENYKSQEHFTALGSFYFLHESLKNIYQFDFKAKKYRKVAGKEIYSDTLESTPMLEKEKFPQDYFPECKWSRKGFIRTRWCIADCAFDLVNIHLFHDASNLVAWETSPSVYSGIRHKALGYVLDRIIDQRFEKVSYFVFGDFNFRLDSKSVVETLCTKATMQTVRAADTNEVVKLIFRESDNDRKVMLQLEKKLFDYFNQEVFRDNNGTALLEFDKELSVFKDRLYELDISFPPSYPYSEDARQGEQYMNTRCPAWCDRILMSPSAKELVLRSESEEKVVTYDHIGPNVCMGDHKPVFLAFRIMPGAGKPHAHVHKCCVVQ

[3] = Tested for [Ca2+] release in 45 [Ca2+] -preloaded SH-SY5Y cells using saponin; format: functional, cell-based; details: Homo sapiens
[4] = Tested for the ability to displace [3H]1,4,5-IP3 from the 1,4,5-IP3 specific binding site of membranes from the bovine adrenal cortices
[5] = (§1) Inhibition of Inositol 1,4,5-trisphosphate 3-kinase from rat brain homogenate (R metabolically resistant); format: tissue-based
[6] = target: T1, Inositol polyphosphate-5-phosphatase A; test: Tested for inhibition of 5-phosphatase isolated from human erythrocyte membrane (R metabolically resistant)
[7] = Inhibition of Inositol 1,4,5-trisphosphate 3-kinase from rat brain homogenate (r-metabolically resistant)
[8] = target: T1, Inositol polyphosphate-5-phosphatase A; test: Tested for inhibition of 5-phosphatase isolated from human erythrocyte membrane
[9] = as §1
[10] = Inhibition of Inositol 1,4,5-trisphosphate 3-kinase from rat brain homogenate (S substrate)

Row | Compound | Ki [1] [µM] | Ki [2] [µM] | EC50 [3] [µM] | Ki [4] [µM] | Ki [5] [µM] | Ki [6] [µM] | Ki [7] [µM] | Ki [8] [µM] | Ki [9] [µM] | Ki [10] [nM]
1 | O=P(O)(O)Cc1ccc(CP(=O)(O)O)c(CP(=O)(O)O)c1 | – | – | > 100 | > 100 | > 200 | 148 | – | – | – | –
2 | O=P(O)(O)OC1CCC(OP(=O)(O)O)[C@H](OP(=O)(O)O)C1 (stereo partly specified) | – | 81.4 | > 10 | 3.95 | – | – | 36 | – | – | –
3 | O=P(O)(O)OCC1CCC(COP(=O)(O)O)[C@H](COP(=O)(O)O)C1 (stereo partly specified) | – | – | > 100 | > 100 | > 600 | 144 | – | – | – | –
4 | O=P(O)(O)CC1CCC(CP(=O)(O)O)[C@H](CP(=O)(O)O)C1 (stereo partly specified) | – | – | > 100 | > 100 | > 600 | 535 | – | – | – | –
5 | O=S(=O)(O)CC1CC[C@@H](CS(=O)(=O)O)C[C@H]1CS(=O)(=O)O (stereo partly specified) | – | – | > 100 | > 100 | > 600 | – | – | 3.9 | – | –
6 | O=S(=O)(O)CC1CC[C@H](CS(=O)(=O)O)C[C@H]1CS(=O)(=O)O (stereo partly specified) | – | – | > 100 | > 100 | – | > 1000 | – | – | > 600 | –

Compounds with a lower EC50 [3], results first:

Row | Ki [1] [µM] | Ki [2] [µM] | EC50 [3] [µM] | Ki [4] [µM] | Ki [5] [µM] | Ki [6] [µM] | Ki [7] [µM] | Ki [8] [µM] | Ki [9] [µM] | Ki [10] [nM] | Compound
7 | 19 | 16.5 | 0.186 | 0.0396 | – | – | – | – | – | – | O=P(O)(O)OC1CCC(OP(=O)(O)O)[C@H](OP(=O)(O)O)[C@@H]1O (stereo partly specified)
8 | 25 | 11.5 | 0.156 | 0.0234 | – | – | – | – | – | – | O=P(O)(O)OC1[C@H](O)CC(OP(=O)(O)O)[C@H](OP(=O)(O)O)[C@@H]1O (stereo partly specified)
9 | – | 15 | 0.0521 | 0.0022 | – | – | – | – | – | 850 | O=P(O)(O)O[C@@H]1[C@H](O)[C@H](O)[C@@H](OP(=O)(O)O)[C@H](OP(=O)(O)O)[C@H]1O [INS(1,4,5)P3]

Source: ChEMBL document CHEMBL1126847, “Deoxygenated inositol 1,4,5-trisphosphate analogues and their interaction with metabolic enzymes. (1R,2R,4R)-cyclohexane-1,2,4-tris(methylenesulfonate): a potent selective 5-phosphatase inhibitor” (J Med Chem, 1993)
